# Reference: publication PMC2924647 (The EMBO Journal, 2010)
# Read-outs that look alike come from different tables or passages of the source. Positions of bridges follow the written chain, without caps; N, C: chain ends. Chains are numbered I, II in the order given. No end group written: not given here.
# What was measured:
# HEK293 cells = experiment: Single-cell FRET control, HEK293 cells expressing pmEpac2 alone; conditions: no RXFP1, relaxin 1 nM
# RXFP1 [1] = system: RXFP1
# RXFP1 [2] = molecular target: T1, RXFP1 (Homo sapiens, UniProt Q9HBX9); experiment: Single-cell FRET cAMP
# T1 sequence (Q9HBX9 1-757): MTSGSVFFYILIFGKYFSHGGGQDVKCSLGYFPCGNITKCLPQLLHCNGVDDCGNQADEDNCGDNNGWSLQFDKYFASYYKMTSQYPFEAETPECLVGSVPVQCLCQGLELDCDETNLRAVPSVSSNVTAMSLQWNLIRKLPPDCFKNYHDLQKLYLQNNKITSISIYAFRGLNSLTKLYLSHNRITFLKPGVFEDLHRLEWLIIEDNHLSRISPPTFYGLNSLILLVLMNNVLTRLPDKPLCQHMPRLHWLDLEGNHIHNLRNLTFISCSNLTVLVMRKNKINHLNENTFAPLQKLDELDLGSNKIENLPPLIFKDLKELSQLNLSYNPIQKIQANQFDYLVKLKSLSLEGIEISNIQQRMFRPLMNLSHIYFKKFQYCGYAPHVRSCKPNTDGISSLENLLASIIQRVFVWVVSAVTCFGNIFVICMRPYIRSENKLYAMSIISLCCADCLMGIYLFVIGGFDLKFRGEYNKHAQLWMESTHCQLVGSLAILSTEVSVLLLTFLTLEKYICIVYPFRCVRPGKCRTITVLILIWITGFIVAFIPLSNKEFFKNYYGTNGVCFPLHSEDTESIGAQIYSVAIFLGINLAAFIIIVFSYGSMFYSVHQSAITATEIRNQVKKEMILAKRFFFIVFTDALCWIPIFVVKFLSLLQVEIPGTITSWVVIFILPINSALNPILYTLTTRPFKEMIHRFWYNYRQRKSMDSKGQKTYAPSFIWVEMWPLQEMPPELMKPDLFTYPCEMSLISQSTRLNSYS
# tRXFP1-703 = experiment: Single-cell FRET cAMP
# RXFP2 [3] = molecular target: T2, RXFP2 (Homo sapiens, UniProt Q8WXD0); experiment: Single-cell FRET cAMP; conditions: for cellular response to sub-picomolar peptide: RXFP2, pmEpac2
# T2 sequence (Q8WXD0 whole entry, species assumed): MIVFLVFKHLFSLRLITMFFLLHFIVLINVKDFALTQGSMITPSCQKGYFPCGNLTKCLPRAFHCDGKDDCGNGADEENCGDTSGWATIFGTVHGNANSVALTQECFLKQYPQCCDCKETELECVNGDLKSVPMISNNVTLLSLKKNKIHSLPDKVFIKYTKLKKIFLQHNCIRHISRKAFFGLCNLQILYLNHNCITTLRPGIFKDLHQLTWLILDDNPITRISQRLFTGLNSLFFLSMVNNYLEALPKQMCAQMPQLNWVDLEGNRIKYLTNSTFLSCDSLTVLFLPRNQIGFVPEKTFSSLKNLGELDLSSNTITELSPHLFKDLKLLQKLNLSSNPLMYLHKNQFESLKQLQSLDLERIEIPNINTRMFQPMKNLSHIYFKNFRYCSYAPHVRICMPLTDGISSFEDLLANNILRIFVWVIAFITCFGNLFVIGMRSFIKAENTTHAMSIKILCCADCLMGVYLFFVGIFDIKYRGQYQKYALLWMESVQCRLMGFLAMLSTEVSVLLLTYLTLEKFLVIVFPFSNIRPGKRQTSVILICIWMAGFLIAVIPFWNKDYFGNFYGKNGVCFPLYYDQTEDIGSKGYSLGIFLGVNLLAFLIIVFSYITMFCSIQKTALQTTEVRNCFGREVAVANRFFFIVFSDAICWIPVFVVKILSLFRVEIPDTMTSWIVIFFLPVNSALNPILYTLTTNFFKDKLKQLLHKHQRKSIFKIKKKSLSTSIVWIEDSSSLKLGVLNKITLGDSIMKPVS
# RXFP1 [4] = molecular target: T1, RXFP1; experiment: Single-cell FRET cAMP; conditions: HeLa, forskolin 1 μM
# RXFP1/2 = experiment: Single-cell FRET cAMP; conditions: relaxin 10 aM–100 μM, RXFP1/2, pmEpac2
# RXFP2 [5] = molecular target: T2, RXFP2; experiment: Single-cell FRET cAMP
# tRXFP1-747 = experiment: Single-cell FRET cAMP; conditions: tRXFP1-747, glEpac2
# RXFP1 [6] = molecular target: T3, RXFP1 (Rattus norvegicus, UniProt Q6R6I6); experiment: Single-cell FRET cAMP; conditions: rat cardiac fibroblasts
# T3 sequence (Q6R6I6 1-758): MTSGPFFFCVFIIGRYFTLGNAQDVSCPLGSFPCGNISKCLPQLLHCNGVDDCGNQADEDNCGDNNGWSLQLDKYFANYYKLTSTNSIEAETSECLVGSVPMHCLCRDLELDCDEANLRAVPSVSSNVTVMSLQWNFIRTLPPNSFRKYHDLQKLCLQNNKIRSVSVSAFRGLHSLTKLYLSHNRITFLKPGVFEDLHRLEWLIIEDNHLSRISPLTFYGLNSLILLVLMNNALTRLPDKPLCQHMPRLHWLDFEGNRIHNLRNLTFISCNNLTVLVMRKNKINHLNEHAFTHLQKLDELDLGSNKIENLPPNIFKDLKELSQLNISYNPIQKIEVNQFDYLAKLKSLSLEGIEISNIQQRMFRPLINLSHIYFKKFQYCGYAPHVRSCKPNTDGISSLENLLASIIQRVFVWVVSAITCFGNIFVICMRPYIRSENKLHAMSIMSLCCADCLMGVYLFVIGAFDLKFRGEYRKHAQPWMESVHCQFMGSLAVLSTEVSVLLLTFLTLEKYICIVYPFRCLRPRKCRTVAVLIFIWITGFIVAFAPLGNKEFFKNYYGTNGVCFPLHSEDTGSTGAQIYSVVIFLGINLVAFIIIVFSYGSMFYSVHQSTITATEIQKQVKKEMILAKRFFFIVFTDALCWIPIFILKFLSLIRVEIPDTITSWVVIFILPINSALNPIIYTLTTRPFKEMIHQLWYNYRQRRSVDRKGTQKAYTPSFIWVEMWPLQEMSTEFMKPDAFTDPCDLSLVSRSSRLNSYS
# RXFP1 S755A = experiment: Single-cell FRET cAMP; conditions: glEpac2
# [7] = system: PDE4D3 / RXFP1 signalosome; experiment: PDE4D3; conditions: 5 min, n=3
# [8] = system: AC2-HA / RXFP1 signalosome; experiment: AC2-HA co-immunoprecipitation from HEK293 cells co-expressing FLAG-RXFP1; conditions: 5 min, n=3
# RXFP1 [9] = molecular target: T1, RXFP1; experiment: Single-cell FRET cAMP; conditions: first phase, biphasic fit, 5 min AUC, glEpac2, HEK293-RXFP1; mean±s.e.m.
# RXFP2/1 = experiment: Single-cell FRET cAMP; conditions: for EC50: pmEpac2, RXFP2/1
# [10] = system: relaxin-stimulated cAMP via RXFP1; type: cell-based
# [11] = system: basal cAMP in cells expressing RXFP1; type: cell-based
# [12] = system: basal cAMP in cells expressing RXFP2 or pcDNA; experiment: Effect of PDE inhibition on basal cAMP, HEK293 expressing RXFP2 or pcDNA; type: cell-based; conditions: IBMX 100 μM, 30 min; RXFP1 versus RXFP2 or pcDNA
compound,measurement,setting,value
Relaxin,cAMP response,HEK293 cells,no detectable cAMP response
same,cAMP response,RXFP1 [1],no detectable cAMP response
same,Relaxin EC50 1,"RXFP1 [2]; first phase, biphasic fit, 5 min AUC, pmEpac2, HEK293-RXFP1, mean±s.e.m.",10.93±0.92 aM
same,saturation of pmEpac2 sensor / response relative to FIP,"RXFP1 [2]; maximal relaxin 100 nM versus FIP (10 μM forskolin, 100 μM IBMX, 100 nM PGE1)",did not saturate the pmEpac2 sensor
same,response to sub-picomolar relaxin,"tRXFP1-703; tRXFP1-703 (truncated following helix 8), glEpac2",remained responsive to stimulation with sub-picomolar concentrations of relaxin
same,maximal cAMP response to relaxin,"tRXFP1-703; tRXFP1-703, glEpac2",reduced following truncation
same,cellular response to sub-picomolar peptide,RXFP2 [3],no evidence of a cellular response
same,EC50,"RXFP2 [3]; read-out: Relaxin EC50 2, pmEpac2, HEK293-RXFP2, 5 min AUC, mean±s.e.m.",18.1 ± 3.84 nM
same,cAMP response to relaxin,"RXFP1 [4]; without PTX, glEpac2","significant concentration-dependent increase in cAMP, which was maintained within the classical relaxin concentration range"
same,biphasic cAMP response,RXFP1/2,not RXFP1/2
same,EC50,"RXFP2 [5]; read-out: Relaxin EC50 2, glEpac2, HEK293-RXFP2, 5 min AUC, mean±s.e.m.",57.7 ± 6.94 nM
same,"cAMP response to sub-picomolar relaxin, effect of mutation",tRXFP1-747,no effect
same,maximal cAMP response to relaxin,tRXFP1-747,reduced through tRXFP1-747
same,cAMP response to sub-picomolar relaxin,"RXFP1 [6]; forskolin 1 μM, without PTX","significant increase in cAMP, which then declined within the classical concentration range"
same,"cAMP response to sub-picomolar relaxin, effect of mutation",RXFP1 S755A,no effect
same,association of PDE4D3 with RXFP1 / regulatory sub-complex,[7]; relaxin 10 nM,reduces the association between RXFP1 and PDE4D3 or AC2
same,association of PDE4D3 with RXFP1 / regulatory sub-complex,[7]; relaxin 10 fM,not 10 fM
same,association of AC2 with RXFP1 / stimulatory sub-complex,[8]; relaxin 10 nM,reduces the association between RXFP1 and PDE4D3 or AC2
same,association of AC2 with RXFP1 / stimulatory sub-complex,[8]; relaxin 10 fM,not 10 fM
same,Relaxin EC50 1,RXFP1 [9],140.34±20.73 aM
same,cAMP accumulation at sub-picomolar concentrations,"RXFP2/1; RXFP2/1, pmEpac2",increased cAMP accumulation at sub-picomolar concentrations
same,Relaxin EC50 1,"RXFP2/1; first phase, pmEpac2, RXFP2/1 (RXFP2-ectodomain, RXFP1-transmembrane/C-terminus), mean±s.e.m.",7.86±1.30 aM
same,EC50,"RXFP2/1; read-out: Relaxin EC50 2, second phase, mean±s.e.m.",0.33 ± 0.08 nM
same,biphasic cAMP response,"RXFP2/1; relaxin 10 aM–100 μM, RXFP2/1, pmEpac2",a biphasic response was evident
CCCCOc1cc(CC2CNC(=O)N2)ccc1OC (centres unmarked) [Ro 20-1724],effect on cAMP response to sub-picomolar (10 fM) relaxin,[10],no further increase following stimulation with 10 fM relaxin
same,effect on basal cAMP,[11],significantly increased basal cAMP
"CC(C)Cn1c(=O)n(C)c(=O)c2[nH]cnc21 [IBMX, 3-isobutyl-1-methylxanthine]","effect on basal cAMP, RXFP1-dependence",[12],significantly increased basal cAMP only in cells expressing RXFP1
same,effect on biphasic relaxin concentration–response curve,[10],abolished the biphasic concentration–response curve
same,effect on cAMP response to sub-picomolar (10 fM) relaxin,[10],no further increase following stimulation with 10 fM relaxin
same,effect on basal cAMP,[11],significantly increased basal cAMP
O=C(Nc1cc(C(=O)Nc2ccc(S(=O)(=O)O)cc2S(=O)(=O)O)cc(C(=O)Nc2ccc(S(=O)(=O)O)cc2S(=O)(=O)O)c1)Nc1cc(C(=O)Nc2ccc(S(=O)(=O)O)cc2S(=O)(=O)O)cc(C(=O)Nc2ccc(S(=O)(=O)O)cc2S(=O)(=O)O)c1 [NF449],effect on cAMP response to sub-picomolar (10 fM) relaxin,[10],significantly inhibited the 10 fM relaxin response
O=C1OC2(c3ccccc31)c1ccc(O)c(O)c1Oc1c2ccc(O)c1O [gallein],effect on cAMP response to sub-picomolar (10 fM) relaxin,[10],completely abolished the cAMP accumulation stimulated by 10 fM relaxin
CN(C(=O)CCCOc1ccc2[nH]c(=O)ccc2c1)C1CCCCC1 [cilostamide],effect on cAMP response to sub-picomolar (10 fM) relaxin,[10],remained responsive to stimulation with 10 fM relaxin
same,effect on basal cAMP,[11],no significant effect
O=S(=O)(NCCNC/C=C/c1ccc(Br)cc1)c1cccc2cnccc12 [H89],effect on cAMP response to sub-picomolar (10 fM) relaxin,[10],no further increase in cAMP
same,effect on basal cAMP,[11],basal cAMP levels were significantly increased
"C[C@H]1O[C@@H](n2cnc3c(N)ncnc32)C[C@@H]1OP(=O)(OCCSC(=O)C(C)(C)C)OCCSC(=O)C(C)(C)C [ddAB, 2′,5′-dd-3′-AMP-bis(tBuSATE)]",effect on cAMP response to sub-picomolar (10 fM) relaxin,[10],completely abolished the response to 10 fM relaxin
"I: PTPEMREKLCGHHFVRALVRVCGGPRWSTEA / II: AAATNPARYCCLSGCTQQDLLTLCPY (disulfide I:10-II:11, I:22-II:24, II:10-II:15) [INSL3]",EC50,RXFP2 [3],1.42 ± 0.92 nM
same,cellular response to sub-picomolar peptide,RXFP2 [3],no evidence of a cellular response
same,EC50,RXFP2 [5],7.74 ± 1.67 nM
same,cAMP accumulation at sub-picomolar concentrations,"RXFP2/1; RXFP2/1, pmEpac2","not the closely related peptide INSL3, increased cAMP accumulation at sub-picomolar concentrations"
same,EC50,"RXFP2/1; read-out: INSL3 EC50, mean±s.e.m.",0.26 ± 0.04 nM
CCCCCCOC(=O)[C@]1(O)C[C@@H]2O[C@@]1(C)n1c3ccccc3c3c4c(c5c6ccccc6n2c5c31)C(=O)NC4 [KT5720],effect on cAMP response to sub-picomolar (10 fM) relaxin,[10],no further increase in cAMP
same,effect on basal cAMP,[11],basal cAMP levels were significantly increased
cholera toxin,effect on cAMP response to sub-picomolar (10 fM) relaxin,[10],response to 10 fM relaxin reaching the maximal relaxin response
same,effect on basal cAMP,[11],potentiated basal
PTX,effect on shape of relaxin concentration–response curve,"RXFP1 [4]; PTX 100 ng/ml, 16 h",revealed the biphasic concentration–response curve
same,effect on cAMP response to sub-picomolar (10 fM) relaxin,[10],did not affect the cAMP response to sub-picomolar concentrations of relaxin
same,effect on maximal / classical cAMP response to relaxin,[10],the maximal cAMP response to relaxin was enhanced
same,effect on shape of relaxin concentration–response curve,RXFP1 [6]; PTX pre-treatment,"revealed a biphasic, stimulatory concentration–response curve"
